Measured values published in patent publication US9617289B2, “RSV antiviral compounds” (JANSSEN R&D IRELAND, priority 2012, dated 2017).

These compounds were tested on rgRSV224 virus (assay: Antiviral activity: inhibition of rgRSV224 (GFP-expressing RSV) replication in HeLa cells). Conditions: human respiratory syncytial virus, HeLa, 72 h, read-out: RSV-wt_pEC50, rgRSV224 (MOI=0.02) in HeLa cells, GFP expression three days post-virus exposure.
Format: cell-based, respiratory syncytial virus
Method in brief: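 HeLa cells infected with GFP-expressing rgRSV224 at MOI 0.02 alongside 4-fold compound dilutions in duplicate (0.5% DMSO). Incubated 3 days at 37 °C; EC50 taken as 50% inhibition of GFP expression by laser microscopy. CC50 measured in parallel uninfected cells by ATP content after 3 days; SI = CC50/EC50.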

SMILES	EC50
N#CCCCn1c(CN2c3ccccc3[C@]3(C[C@@H](NC(=O)OC4CC4)C3)C2=O)nc2cc(Cl)ccc21 [Compound 126, cyclopropyl ((1r,3r)-1-((5-chloro-1-(3-cyanopropyl)-1H-benzo[d]imidazol-2-yl)methyl)-2′-oxospiro[cyclobutane-1,3′-indolin]-3-yl)carbamate]	0.257 nM
N#CCCCn1c(CN2C(=O)C3(CN(C(=O)[C@H](O)CO)C3)c3ccccc32)cc2cc(Cl)ccc21 [Compound 131, (R)-4-(5-chloro-2-((1-(2,3-dihydroxypropanoyl)-2′-oxospiro[azetidine-3,3′-indolin]-1′-yl)methyl)-1H-indol-1-yl)butanenitrile]	0.427 nM
N#CCCCn1c(CN2C(=O)C3(CCN(C(=O)OC4CC4)CC3)c3ccncc32)cc2cc(Cl)ccc21 [Compound 132, Cyclopropyl 1′-{[5-chloro-1-(3-cyanopropyl)-1H-indol-2-yl]methyl}-2′-oxo-1′,2′-dihydro-1H-spiro[piperidine-4,3′-pyrrolo[2,3-c]pyridine]-1-carboxylate]	0.0646 nM
CS(=O)(=O)CCCn1c(CN2c3ccccc3[C@]3(C[C@@H](OC(=O)N4CCOCC4)C3)C2=O)nc2cc(Cl)ccc21 [Compound 133, (1r,3r)-1′-((5-chloro-1-(3-(methylsulfonyl)propyl)-1H-benzo[d]imidazol-2-yl)methyl)-2′-oxospiro[cyclobutane-1,3′-indolin]-3-yl morpholine-4-carboxylate]	0.141 nM
CS(=O)(=O)CCCn1c(CN2C(=O)C3(CNC3)c3ccccc32)cc2cc(Cl)ccc21 [Compound 134, 1′-({5-Chloro-1-[3-(methylsulfonyl)propyl]-1H-indol-2-yl}methyl)spiro[azetidine-3,3′-indol]-2′(1′H)-one]	2 nM
COC(=O)N[C@H]1C[C@]2(C1)C(=O)N(Cc1nc3cc(Cl)ccc3n1CCCC#N)c1ccccc12 [Compound 135, methyl ((1s,3s)-1′-((5-chloro-1-(3-cyanopropyl)-1H-benzo[d]imidazol-2-yl)methyl)-2′-oxospiro[cyclobutane-1,3′-indolin]-3-yl)carbamate]	0.0955 nM
COC(=O)N[C@H]1C[C@@]2(C1)C(=O)N(Cc1nc3cc(Cl)ccc3n1CCCC#N)c1ccccc12 [Compound 136, methyl ((1r,3r)-1′-((5-chloro-1-(3-cyanopropyl)-1H-benzo[d]imidazol-2-yl)methyl)-2′-oxospiro[cyclobutane-1,3′-indolin]-3-yl)carbamate]	0.245 nM
N#CCCCn1c(CN2C(=O)C3(CN(C(=O)C4(O)CC4)C3)c3ccccc32)cc2cc(Cl)ccc21 [Compound 137]	0.107 nM
CC(C)(O)C(=O)N1CCC2(C1)C(=O)N(Cc1nc3cc(Cl)ccc3n1CCCS(C)(=O)=O)c1ccccc12 (centres unmarked) [Compound 138, 1-((5-chloro-1-(3-(methylsulfonyl)propyl)-1H-benzo[d]imidazol-2-yl)methyl)-1′-(2-hydroxy-2-methylpropanoyl)spiro[indoline-3,3′-pyrrolidlin]-2-one]	2.14 nM
N#CCCCn1c(CN2c3ccccc3[C@]3(C[C@@H](N)C3)C2=O)nc2cc(Cl)ccc21 [Compound 148, 4-(2-(((1r,3r)-3-amino-2′-oxospiro[cyclobutane-1,3′-indolin]-1′-yl)methyl)-5-chloro-1H-benzo[d]imidazol-1-yl)butanenitrile]	4.68 nM
N#CCCCn1c(CN2c3ccccc3[C@]3(C[C@H](N)C3)C2=O)nc2cc(Cl)ccc21 [Compound 149, 4-(2-(((1s,3s)-3-amino-2′-oxospiro[cyclobutane-1,3′-indolin]-1′-yl)methyl)-5-chloro-1H-benzo[d]imidazol-1-yl)butanenitrile]	1.2 nM
CC(=O)OCCOC(=O)N1CCC2(CC1)C(=O)N(Cc1cc3cc(Cl)ccc3n1CCCC#N)c1cnccc12 [Compound 150, 2-(Acetyloxy)ethyl 1′-{[5-chloro-1-(3-cyanopropyl)-1H-indol-2-yl]methyl}-2′-oxo-1′,2′-dihydro-1H-spiro[piperidine-4,3′-pyrrolo-[2,3-c]pyridine]-1-carboxylate]	0.049 nM
CC(C)(O)C(=O)N1CC2(C1)C(=O)N(Cc1cc3cc(Cl)ccc3n1CCCS(C)(=O)=O)c1ccccc12 [Compound 152, 1′-({5-Chloro-1-[3-(methylsulfonyl)propyl]-1H-indol-2-yl}methyl)-1-(2-hydroxy-2-methylpropanoyl)spiro[azetidine-3,3′-indol]-2′(1′H)-one]	1.58 nM
CC(C)(O)C(=O)N1CCC2(CC1)C(=O)N(Cc1c(C(N)=O)c3cc(Cl)ccc3n1CCCCF)c1cnccc12 [Compound 153, 5-Chloro-1-(4-fluorobutyl)-2-{[1-(2-hydroxy-2-methylpropanoyl)-2′-oxospiro[piperidine-4,3′-pyrrolo[2,3-c]pyridin]-1′(2′H)-yl]methyl}-1H-indole-3-carboxamide]	0.0575 nM
CC(C)(O)C(=O)N1CCC2(C1)C(=O)N(Cc1nc3cc(Cl)ccc3n1CCCC#N)c1ccccc12 (centres unmarked) [Compound 154, 4-(5-Chloro-2-{[1′-(2-hydroxy-2-methylpropanoyl)-2-oxospiro[indole-3,3′-pyrrolidin]-1(2H)-yl]methyl}-1H-benzimidazol-1-yl)butanenitrile]	1.17 nM
CC(C)(O)C(=O)N1CCC2(CC1)C(=O)N(Cc1cc3cc(Cl)ccc3n1CCCCO)c1cnccc12 [Compound 155, 1′-{[5-Chloro-1-(4-hydroxybutyl)-1H-indol-2-yl]methyl}-1 - (2-hydroxy-2-methylpropanoyl)spiro[piperidine-4,3′-pyrrolo[2,3-c]pyridin]-2′(1′H)-one]	0.17 nM
CC(C)(C)OC(=O)N1CCC2(CC1)C(=O)N(Cc1c(C(N)=O)c3cc(Cl)ccc3n1CCCCF)c1cnccc12 [Compound 156, tert-Butyl 1′-{[3-carbamoyl-5-chloro-1-(4-fluorobutyl)-1H-indol-2-yl]methyl}-2′-oxo-1′,2′-dihydro-1H-spiro[piperidine-4,3′-pyrrolo[2,3-c]pyridine]-1-carboxylate]	0.0676 nM
CC(C)(C)OC(=O)N1CCC2(C1)C(=O)N(Cc1nc3cc(Cl)ccc3n1CCCC#N)c1ccccc12 (centres unmarked) [Compound 157, tert-Butyl 1-{[5-chloro-1-(3-cyanopropyl)-1H-benzimidazol-2-yl]methyl}-2-oxo-1,2-dihydro-1′H-spiro[indole-3,3′-pyrrolidine]-1′-carboxylate]	3.98 nM
O=C1CC2(C1)C(=O)N(Cc1nc3cc(Cl)ccc3n1CCCCF)c1ccccc12 [Compound 158, 1-{[5-Chloro-1-(4-fluorobutyl)-1H-benzimidazol-2-yl]methyl}-3H-spiro[cyclobutane-1,3′-indole]-2′,3(1′H)-dione]	0.575 nM
O=C1N(Cc2cc3cc(Cl)ccc3n2CCCCF)c2cnccc2C12CCNCC2 [Compound 162]	4.57 nM
CC(C)(C)OC(=O)N1CC2(C1)C(=O)N(Cc1cc3cc(Cl)ccc3n1CCCS(C)(=O)=O)c1ccccc12 [Compound 163, tert-Butyl 1′-({5-chloro-1-[3-(methylsulfonyl)propyl]-1H-indol-2-yl}methyl)-2′-oxo-1′,2′-dihydro-1H-spiro[azetidine-3,3′-indole]-1-carboxylate]	0.2 nM
N#CCCCn1c(CN2C(=O)C3(CN(C(=O)C(O)CO)C3)c3ccccc32)cc2cc(Cl)ccc21 (centres unmarked) [Compound 165, 4-(5-chloro-2-((1-(2,3-dihydroxypropanoyl)-2′-oxospiro[azetidine-3,3′-indolin]-1′-yl)methyl)-1H-indol-1-yl)butanenitrile]	0.145 nM
O=C(C(O)CO)N1CCC2(CC1)C(=O)N(Cc1cc3cc(Cl)ccc3n1CCCCF)c1cnccc12 (centres unmarked) [Compound 167, 1′-{[5-Chloro-1-(4-fluorobutyl)-1H-indol-2-yl]methyl}-1-(2,3-dihydroxypropanoyl)spiro[piperidine-4,3′-pyrrolo[2,3-c]pyridin]-2′(1′H)-one]	0.123 nM
CNC(=O)O[C@H]1C[C@@]2(C1)C(=O)N(Cc1nc3cc(Cl)ccc3n1CCCC#N)c1ccccc12 [Compound 168, (1r,3r)-1′-((5-chloro-1-(3-cyanopropyl)-1H-benzo[d]imidazol-2-yl)methyl)-2′-oxospiro[cyclobutane-1,3′-indolin]-3-yl methylcarbamate]	0.0347 nM
CC(=O)NS(=O)(=O)N1CC2(C1)C(=O)N(Cc1nc3cc(Cl)ccc3n1CCCC#N)c1ccccc12 [Compound 170, N-[(1′-{[5-Chloro-1-(3-cyanopropyl)-1H-benzimidazol-2-yl]methyl}-2′-oxo-1′,2′-dihydro-1H-spiro[azetidine-3,3′-indol]-1-yl)sulfonyl]acetamide]	0.269 nM
N#CCCCn1c(CN2c3ccccc3[C@]3(C[C@@H](OC(=O)NC4CC4)C3)C2=O)nc2cc(Cl)ccc21 [Compound 173, (1r,3r)-1′-((5-chloro-1-(3-cyanopropyl)-1H-benzo[d]imidazol-2-yl)methyl)-2′-oxospiro[cyclobutane-1,3′-indolin]-3-yl cyclopropylcarbamate]	0.0224 nM
CC1CC2(CC(C)O1)C(=O)N(Cc1nc3cc(Cl)ccc3n1CCCS(C)(=O)=O)c1cnccc12 (centres unmarked) [Compound 174, 1′-({5-Chloro-1-[3-(methylsulfonyl)propyl]-1H-benzimidazol-2-yl}methyl)-2,6-dimethyl-2,3,5,6-tetrahydrospiro[pyran-4,3′-pyrrolo[2,3-c]pyridin]-2′(1′H)-one]	17.8 nM
CC(C)(O)C(=O)N1CC2(C1)C(=O)N(Cc1nc3cc(Cl)ccc3n1CCCCO)c1ccccc12 [Compound 175, 1′-{[5-Chloro-1-(4-hydroxybutyl)-1H-benzimidazol-2-yl]methyl}-1-(2-hydroxy-2-methylpropanoyl)spiro[azetidine-3,3′-indol]-2′(1′H)-one]	0.0741 nM
O=C(NS(=O)(=O)N1CCC2(CC1)C(=O)N(Cc1cc3cc(Cl)ccc3n1CCCCF)c1cnccc12)C1CC1 [Compound 184, N-[(1′-{[5-Chloro-1-(4-fluorobutyl)-1H-indol-2-yl]methyl}-2′-oxo-1′,2′-dihydro-1H-spiro[piperidine-4,3′-pyrrolo[2,3-c]pyridin]-1-yl)sulfonyl]cyclopropanecarboxamide]	0.219 nM
